Counter-ions that a name gives are not always drawn.
Key:
[1] = Concentration of test drug in blood by oral administration in rats (LC/MS/MS); assay type: in vivo; conditions: Wistar rats, oral 1 mg/kg; for concentration at 5 min / concentration at 10 min / concentration at 15 min / concentration at 30 min / concentration at 1 h / concentration at 2 h: male, rat, plasma, mean of 2 samples; for concentration at 5 min: 5 min. after administration; for concentration at 10 min: 10 min. after administration; for concentration at 15 min: 15 min. after administration; for concentration at 30 min: 30 min. after administration; for concentration at 1 h: 1 hour after administration; for concentration at 2 h: 2 hours after administration
Protocol: Experiment 2 [Concentration of Test Drug in Blood by Oral Administration in Rats]
Wistar rats, male (8 weeks old) were used after fasting from the day before the test.
At 5, 10, 15, 30 minutes, 1 and 2 hours after the administration, each 0.2 ml of blood was collected from the jugular vein and, after centrifugation, the resulting plasma was used as sample.
That is, 50 μl of the plasma was added to 200 μl of acetonitrile, stirred and, after centrifugation, the supernatant was injected to a liquid chromatography wherein CAPCEL PAK C18, UG120 5 μm (150 mm long, 2 mm diameter) was used as a column, a mixture of 10 mM aqueous ammonium acetate solution and 90% aqueous acetonitrile solution (1:9) was used as an eluent, Sciex API3000 LC/MS/MS System (Perkin Elmer Sciex) was used as a MS/MS condition, ESI was used as an ionization method, and cation, and SRM (precursor ion and daughter ion) was used for monitoring.

[2] = biological target: dipeptidyl peptidase IV (DPP IV) (Homo sapiens, UniProt P27487); assay: Dipeptidyl peptidase IV activity inhibition test (human plasma, Gly-Pro-4-methylcoumaryl-7-amide); assay type: biochemical; conditions: room temperature, 2 hours, pH 7.8
dipeptidyl peptidase IV (DPP IV), sequence (P27487 39-766 limits assumed): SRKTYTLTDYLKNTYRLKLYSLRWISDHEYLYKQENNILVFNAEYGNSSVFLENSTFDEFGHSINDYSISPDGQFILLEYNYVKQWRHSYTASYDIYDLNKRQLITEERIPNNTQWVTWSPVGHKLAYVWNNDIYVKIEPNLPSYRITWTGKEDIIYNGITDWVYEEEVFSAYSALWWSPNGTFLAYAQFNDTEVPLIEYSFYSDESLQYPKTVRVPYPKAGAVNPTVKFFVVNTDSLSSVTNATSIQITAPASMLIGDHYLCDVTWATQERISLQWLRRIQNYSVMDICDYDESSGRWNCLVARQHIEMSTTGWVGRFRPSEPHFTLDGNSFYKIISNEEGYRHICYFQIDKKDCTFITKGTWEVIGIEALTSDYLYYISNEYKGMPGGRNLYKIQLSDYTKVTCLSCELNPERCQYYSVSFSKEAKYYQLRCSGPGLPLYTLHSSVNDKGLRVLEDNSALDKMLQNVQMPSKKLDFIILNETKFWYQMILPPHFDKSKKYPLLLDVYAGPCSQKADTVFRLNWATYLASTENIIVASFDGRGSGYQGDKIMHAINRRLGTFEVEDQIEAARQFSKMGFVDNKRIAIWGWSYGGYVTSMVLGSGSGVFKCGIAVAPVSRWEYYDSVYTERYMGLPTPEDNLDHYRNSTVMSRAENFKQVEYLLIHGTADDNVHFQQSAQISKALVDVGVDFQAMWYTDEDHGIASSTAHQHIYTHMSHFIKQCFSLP
Protocol: Experiment 1 [Dipeptidyl Peptidase IV Activity Inhibition Test]
Plasma including dipeptidyl peptidase IV was prepared by centrifugation of blood collected from healthy human volunteers. […] The fluorescence intensity at which the reaction time of the vehicle addition was 0 minute was regarded as a blank value, and the specific fluorescence intensity was calculated by subtracting the blank value from the determined value. The inhibition rate (%) of the dipeptidyl peptidase IV activity was calculated from the resulting specific fluorescence intensity according to the following formula. The dimethyl sulfoxide solution containing the test compound at high concentration of 1000-fold was prepared and diluted with the above-mentioned buffer solution for use.
Inhibition rate (%)=A/B×100
(A=fluorescence intensity of vehicle addition fluorescence intensity of the test compound addition)
(B=fluorescence intensity of the vehicle addition)

[3] = tested on: Zucker fatty rats; assay: Oral glucose tolerance test (OGTT) in Zucker fatty rats; assay type: in vivo
Protocol: Experiment 3 [Effect of Dipeptidyl Peptidase IV Inhibitors on Oral Glucose Tolerance Test (OGTT) in Zucker Fatty Rats]
An OGTT in Zucker fatty rats was carried out referring to the method described in Diabetologia, 42, 1324-1331 (1999). In the test, male Zucker fatty rats, 10 weeks old (Charles River Japan, Inc.) were used after fasting for 16 hours. […] Before the begining of the test, blood was collected from the intraorbital vein using a heparin-treated tube for blood collection (manufactured by Drummond Scientific Co.). The test compounds were each dissolved in water for injection under Japanese Pharmacopoeia (manufactured by Hikari Pharmaceutical Co.) and orally administered in an amount of 2 ml/kg of the body weight. The same amount of water for injection under Japanese Pharmacopoeia only was administered to control group. […]
Plasma glucose levels of the frozen samples (mg/dl) were determined using Glucose CII test Wako (manufactured by Wako Fine Chemical Industry Co.), and the area under the curve (min·mg/dl) was calculated from the plasma glucose levels which were determined from the blood collected for 60 minutes after the glucose administration. […]

| Compound | concentration at 5 min [1] | concentration at 10 min [1] | concentration at 15 min [1] | concentration at 30 min [1] | concentration at 1 h [1] | concentration at 2 h [1] | IC50 [2] | elevation of the plasma glucose level (in words) ([3]; OGTT, p<0.05) | area under the curve of plasma glucose levels, mean ± S.E. ([3]; oral, glucose 1 g/kg 30 minutes after compound, 60 minutes after glucose administration) | concentration in plasma compared with Compound A (in words) [1] |
| --- | --- | --- | --- | --- | --- | --- | --- | --- | --- | --- |
| CC[C@H](C)[C@H](N)C(=O)N1CCC[C@H]1C#N [Compound A, 1-[(2S,3S)-2-amino-3-methylpentanoyl]-2-(S)-cyanopyrrolidine trifluoroacetate, reference compound] | 0.122 µg/mL | 0.146 µg/mL | 0.113 µg/mL | 0.028 µg/mL | 0.006 µg/mL | 0.002 µg/mL |  |  |  |  |
| CC(C)(C)[C@H](N)C(=O)N1C[C@@H](F)C[C@H]1C#N [Example 17, (2S,4S)-1-[(2S)-2-amino-3,3-dimethylbutanoyl]-2-cyano-4-fluoropyrrolidine Hydrochloride] |  |  |  |  |  |  | 0.6 nM |  |  |  |
| CC[C@H](C)[C@H](N)C(=O)N1C[C@@H](F)C[C@H]1C#N.Cl [Example 1, (2S,4S)-1-[(2S,3S)-2-amino-3-methylpentanoyl]-2-cyano-4-fluoropyrrolidine Hydrochloride] | 0.157 µg/mL | 0.372 µg/mL | 0.348 µg/mL | 0.195 µg/mL | 0.024 µg/mL | 0.005 µg/mL | 0.6 nM | inhibited significantly the elevation of the plasma glucose level | 13248 ± 619 mg·min/dL | higher concentration in plasma than Compound A |
| CC(C)[C@H](N)C(=O)N1C[C@@H](F)C[C@H]1C#N [Example 15, (2S,4S)-1-[(2S)-2-amino-3-methylbutanoyl]-2-cyano-4-fluoropyrrolidine Hydrochloride] |  |  |  |  |  |  | 0.7 nM |  |  |  |
